From patent publication US20150352108A1, “AMINO-PYRIMIDINE COMPOUNDS AS INHIBITORS OF TBK1 AND/OR IKK EPSILON” (Alzheimer's Institute of America, priority 2009, published 2015)

These compounds were tested against T1, IKKε (Homo sapiens, UniProt Q14164) (assay: In-vitro IKKε kinase assay ([γ33]ATP filter-plate)). Conditions: text bins; read-out: IC50 for inhibition of the kinase activity of IKKε.
T1 construct: His-tag; made in house; host or cells: Sf9 insect cells
T1 sequence (Q14164 1-716): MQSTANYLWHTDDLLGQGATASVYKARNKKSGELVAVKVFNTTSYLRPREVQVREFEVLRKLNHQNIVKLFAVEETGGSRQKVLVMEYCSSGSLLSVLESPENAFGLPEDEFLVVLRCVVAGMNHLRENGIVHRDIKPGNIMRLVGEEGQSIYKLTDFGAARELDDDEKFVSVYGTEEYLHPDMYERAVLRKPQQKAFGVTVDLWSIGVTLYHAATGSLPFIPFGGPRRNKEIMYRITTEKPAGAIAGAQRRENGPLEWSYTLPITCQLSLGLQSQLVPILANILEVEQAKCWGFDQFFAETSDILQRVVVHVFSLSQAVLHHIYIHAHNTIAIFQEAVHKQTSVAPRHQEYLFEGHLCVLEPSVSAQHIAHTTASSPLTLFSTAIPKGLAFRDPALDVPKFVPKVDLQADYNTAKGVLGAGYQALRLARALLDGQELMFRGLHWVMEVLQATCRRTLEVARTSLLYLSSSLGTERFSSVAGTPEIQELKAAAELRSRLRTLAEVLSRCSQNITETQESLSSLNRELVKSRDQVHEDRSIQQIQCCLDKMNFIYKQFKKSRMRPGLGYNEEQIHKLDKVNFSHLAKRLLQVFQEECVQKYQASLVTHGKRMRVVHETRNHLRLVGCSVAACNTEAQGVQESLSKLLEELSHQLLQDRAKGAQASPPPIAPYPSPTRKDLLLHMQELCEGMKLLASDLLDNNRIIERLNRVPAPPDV
Assay type: biochemical
How it was run: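 Phosphorylation of casein or myelin basic protein was counted by P-81 filter capture after 30-45 min reactions stopped with phosphoric acid, with counts normalized to DMSO after background subtraction. ATP was twice Km: 60 μM for TBK1 and 32 μM for IKKε, plus [γ33]ATP. Sf9-expressed His-tag enzymes were used at normal/sensitized levels of 0.1/0.02 μg/ml (TBK1) and 0.1/0.015 μg/ml (IKKε).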

| Structure (SMILES) | IC50 |
| --- | --- |
| N#Cc1cc(-c2ccnc(Nc3ccc(N4CCOCC4)cc3)n2)ccc1NC(=O)c1cccnc1 [Example 204, N-[2-cyano-4-(2-{[4-(morpholin-4-yl)phenyl]amino}pyrimidin-4-yl)phenyl]pyridine-3-carboxamide] | 50 to 500 nM |
| COc1cc(Nc2nccc(-c3ccc(OC4CCOCC4)c(C#N)c3)n2)ccc1N1CCC(N2CCN(C)CC2)CC1 [compound 514, 5-[2-({3-methoxy-4-[4-(4-methylpiperazin-1-yl)piperidin-1-yl]phenyl}amino)pyrimidin-4-yl]-2-(tetrahydro-2H-pyran-4-yloxy)benzonitrile] | 50 to 500 nM |
| COc1cc(NC(=O)c2ccncc2)cc(Nc2nccc(-c3ccc(OC)c(C#N)c3)n2)c1 [compound 357] | 50 to 500 nM |
| C[C@H](O)C(=O)N1CC(Oc2ccc(-c3ccnc(Nc4ccc(N5CCOCC5)cc4)n3)cc2C#N)C1 [Example 249, 2-({1-[(2S)-2-hydroxypropanoyl]azetidin-3-yl}oxy)-5-(2-{[4-(morpholin-4-yl)phenyl]amino}pyrimidin-4-yl)benzonitrile] | 50 to 500 nM |
| N#Cc1cc(-c2ccnc(Nc3ccc(N4CCOCC4)cc3)n2)ccc1OCCNC(=O)CCO [Example 95] | 50 to 500 nM |
| COc1cc(NC(=O)c2ccccn2)cc(Nc2nccc(-c3ccc(OC)c(C#N)c3)n2)c1 [compound 365] | 50 to 500 nM |
| CC(C)N1CCC(Oc2ccc(-c3ccnc(Nc4ccc(N5CCOCC5)cc4)n3)cc2C#N)CC1 [Example 227, 5-(2-{[4-(Morpholin-4-yl)phenyl]amino}pyrimidin-4-yl)-2-{[1-(propan-2-yl)piperidin-4-yl]oxy}benzonitrile] | 50 to 500 nM |
| N#Cc1cccc(-c2nc(Nc3ccc(N4CCOCC4)cc3)nc3[nH]cnc23)c1 [compound 562, 3-(2-{[4-(Morpholin-4-yl)phenyl]amino}-3H-purain-6-yl)benzonitrile] | 50 to 500 nM |
| COC(=O)C(C)(C)COc1ccc(-c2ccnc(Nc3ccc(N4CCOCC4)cc3)n2)cc1C#N [Example 84, methyl 3-[2-cyano-4-(2-{[4-(morpholin-4-yl)phenyl]amino}pyrimidin-4-yl)phenoxy]-2,2-dimethylpropanoate] | 50 to 500 nM |
| N#Cc1cc(-c2ccnc(Nc3ccc(N4CCOCC4)cc3)n2)ccc1OC1CN(C=O)C1 [Example 101, 2-[(1-formylazetidin-3-yl)oxy]-5-(2-{[4-(morpholin-4-yl)phenyl]amino}pyrimidin-4-yl)benzonitrile] | 50 to 500 nM |
| C[C@@H](O)C(=O)N1CCC(Oc2ccc(-c3ccnc(Nc4ccc(N5CCOCC5)cc4)n3)cc2C#N)CC1 [Example 140, 2-({1-[(2R)-2-hydroxypropanoyl]piperidin-4-yl}oxy)-5-(2-{[4-(morpholin-4-yl)phenyl]amino}pyrimidin-4-yl)benzonitrile] | 5 to 50 nM |
| N#Cc1cc(-c2ccnc(Nc3cccc(F)c3)n2)ccc1O[C@@H]1CCN(C(=O)CO)C1 [compound 641, 5-{2-[(3-Fluorophenyl)amino]pyrimidin-4-yl}-2-{[(3R)-1-(hydroxyacetyl)pyrrolidin-3-yl]oxy}benzonitrile] | 5 to 50 nM |

Next, values leading:

| IC50 | Structure (SMILES) |
| --- | --- |
| 5 to 50 nM | N#Cc1cc(-c2ccnc(Nc3ccc(N4CCOCC4)cc3)n2)ccc1OC1CCN(C(=O)[C@@H](O)C(F)(F)F)CC1 [Example 113, 5-(2-{[4-(morpholin-4-yl)phenyl]amino}pyrimidin-4-yl)-2-({1-[(2R)-3,3,3-trifluoro-2-hydroxypropanoyl]piperidin-4-yl}oxy)benzonitrile] |
| < 5 nM | Cc1ccnc(NS(=O)(=O)c2ccc(Nc3nccc(-c4ccc(OC5CCOCC5)c(C#N)c4)n3)cc2)n1 [compound 635, 4-({4-[3-Cyano-4-(tetrahydro-2H-pyran-4-yloxy)phenyl]pyrimidin-2-yl}amino)-N-(4-methylpyrimidin-2-yl)benzene-sulfonamide] |
| 5 to 50 nM | N#Cc1cc(-c2ccnc(Nc3ccc(N4CCOCC4)c(C(F)(F)F)c3)n2)ccc1OC1CCOCC1 [Example 120, 5-(2-{[4-(morpholin-4-yl)-3-(trifluoromethyl)phenyl]amino}pyrimidin-4-yl)-2-(tetrahydro-2H-pyran-4-yloxy)benzonitrile] |
| 5 to 50 nM | CC(C)NC(=O)NCCOc1ccc(-c2ccnc(Nc3ccc(N4CCOCC4)cc3)n2)cc1C#N [Example 47, 1-{2-[2-cyano-4-(2-{[4-(morpholin-4-yl)phenyl]amino}pyrimidin-4-yl)phenoxy]ethyl}-3-propan-2-ylurea] |
| < 5 nM | N#Cc1cc(-c2ccnc(Nc3ccc(S(=O)(=O)Nc4nccs4)cc3)n2)ccc1OC1CCOCC1 [compound 575, 4-({4-[3-Cyano-4-(tetrahydro-2H-pyran-4-yloxy)phenyl]pyrimidin-2-yl}amino)-N-(1,3-thiazol-2-yl) benzenesulfonamide] |
| < 5 nM | N#Cc1cc(-c2ccnc(Nc3ccc(-c4cccnc4)cc3)n2)ccc1OC1CCOCC1 [compound 550, 5-(2-{[4-(Pyridin-3-yl)phenyl]amino}pyrimidin-4-yl)-2-(tetrahydro-2H-pyran-4-yloxy)benzonitrile] |
| 5 to 50 nM | N#Cc1cc(-c2ccnc(Nc3ccc(N4CCOCC4)cc3)n2)ccc1OCC1CN(C(=O)CO)C1 [Example 188, 2-{[1-(hydroxyacetyl)azetidin-3-yl]methoxy}-5-(2-{[4-(morpholin-4-yl)phenyl]amino}pyrimidin-4-yl)benzonitrile] |
| 5 to 50 nM | COc1cc(NC(=O)NC2CCCC2)cc(Nc2nccc(-c3ccc(OC4CCN(C(C)=O)CC4)c(C#N)c3)n2)c1 [compound 333, 1-{3-[(4-{4-[(1-Acetylpiperidin-4-yl)oxy]-3-cyanophenyl}pyrimidin-2-yl)amino]-5-methoxyphenyl}-3-cyclopentylurea] |
